From paper PMC7518156 (PeerJ, 2020)
Entries after “also recorded” stand apart in the source; their conditions may differ. Read-outs that look alike come from different tables or passages of the source.

Test: Pharmacokinetics of ERL and GEF in Wistar rats after four weeks consumption of water or flavoured water (plasma, UPLC-MS/MS, non-compartmental analysis)
Type: in vivo
Conditions: for concentration at 0 h / concentration at 0.5 h / concentration at 1 h / concentration at 2 h / concentration at 3 h / concentration at 5 h / concentration at 24 h / concentration at 48 h / AUC(0-inf) / CL/F / Cmax / Tmax / AUC(0-t) / half-life / AUC: male, Wistar, rat, plasma, 20 mg/kg; for Tmax: read-out: tmax; for AUC(0-t): read-out: AUC0-48; for half-life: read-out: t½ (converted)
Method: Fifty healthy male Wistar rats weighing 250 ± 30 g were obtained from the animal house, College of Pharmacy, King Saud University, Riyadh, Saudi Arabia. Rats were randomly divided into ten cages (n = 5). All individualized ventilated cages (IVC) type IV used in this study were of 20″L × 11″W × 9″ in dimension capable of hosting 4–5 rats. Cages density, bedding, and sanitation frequency was similar in all cages. Cages were housed at room temperature (25 °C) and at an average relative humidity of 50%. Daily observation of all rats was required to ensure that all animals maintained good health. All animal experiments strictly followed the guidelines of the Ethical Committee for Performing Studies on Animals, King Saud University, Riyadh, Saudi Arabia, protocol number KSU-SE-19-13.
Four types of FW, (Aquafina®, a product of Pepsi-Cola®, Saudi Industrial Projects Company, Jeddah, Saudi Arabia) with different flavours, specifically berry (group II), peach (group III), lime (group IV), and pineapple FW (group V) were used. Other components found in FW used in this study include water, preservatives (sodium phosphate, potassium sorbet, sodium benzoate), acidifiers (citric acid, maleic acid), sweeteners (aspartame, potassium acesulfame, allose), acidity regulator (sodium citrate), and antioxidant agent (calcium disodium EDTA). […] The parallel design was used in this study to avoid animals’ physiological changes that could occur in the cross-over design, possibly affecting PK profiles of drug substances. All animals involved in the study were deprived from food, but not water/FW, for at least 12 h before drug administration. […] Drugs were administered to the rats between 7:00 am and 8:00 am. Rats were separately weighed from day one of water/FW consumption prior to drug administration for accurate dose calculation (Fig. S1). Blood samples (0.3 mL) were collected from each rat immediately prior to dosing (0 time) and at predetermined time points (0.5, 1, 2, 3, 5, 24, and 48 h) post drug administration. Blood samples were withdrawn and processed as described previously ([Maher et al., 2017]; [Maher, Alzoman & Shehata, 2016]; [Maher, Alzoman & Shehata, 2018]). Specifically, blood samples were withdrawn from the retro-orbital sinus into a series of heparinized tubes. Plasma was separated from collected blood samples by centrifugation at 4,500 rpm for 30 min where the centrifuge was maintained at 4 °C, and then stored at −20 °C until the day of analysis. […] A mixture of acetonitrile: water (80: 20, v/v), with 0.1% formic acid was used as a mobile phase at a flow rate of 0.2 mL/min ([Maher, Alzoman & Shehata, 2016]).
Cmax and tmax were obtained from the corresponding plasma concentration–time curve (Figs. 1A and 1B). […] The area under the plasma concentration–time curve from time 0 to the last sampling time t, 48 h (AUC0–t) was calculated using the trapezoidal rule. […] AUC0–∞ was also derived by summing up AUC0–t andthe area obtained by extrapolation from time t to ∞. The latter area was calculated from the division of the last measured concentration (Clast) by λz.
Results were presented as mean ± SD. PK parameters of all treated groups following the consumption of FW were compared with control (rats having free access to water), using one-way ANOVA and Bonferroni’s multiple comparisons test. Statistical significance was obtained with p-values ≤ 0.05.

[1] = oral, PKSolver sheet, dose 20 mg/kg, +Berry, read-out: Conc
[2] = oral, PKSolver sheet, dose 20 mg/kg, +Lime, read-out: Conc
[3] = oral, PKSolver sheet, dose 20 mg/kg, +Peach, read-out: Conc
[4] = oral, PKSolver sheet, dose 20 mg/kg, +Pineapple, read-out: Conc
[5] = oral, PKSolver sheet, dose 20 mg/kg, drug alone (water), read-out: Conc
[6] = po, rats, 20 mg/kg oral, +Berry FW, average, read-out: Conc*10 (ng/mL plasma)
[7] = po, rats, 20 mg/kg oral, +Lime FW, average, read-out: Conc*10 (ng/mL plasma)
[8] = po, rats, 20 mg/kg oral, +Peach FW, average, read-out: Conc*10 (ng/mL plasma)
[9] = po, rats, 20 mg/kg oral, +Pineapple FW, average, read-out: Conc*10 (ng/mL plasma)
[10] = po, rats, 20 mg/kg oral, drug alone (water), average, read-out: Conc*10 (ng/mL plasma)
[11] = po, rats, 20 mg/kg oral, four weeks berry FW, n = 5, mean (SD)
[12] = po, rats, 20 mg/kg oral, four weeks peach FW, n = 5, mean (SD)
[13] = po, rats, 20 mg/kg oral, four weeks pineapple FW, n = 5, mean (SD)
[14] = po, rats, 20 mg/kg oral, water (control), n = 5, mean (SD)
[15] = po, raw data sheet, from average profile, +Berry FW
[16] = po, raw data sheet, from average profile, +Lime FW
[17] = po, raw data sheet, from average profile, +Peach FW
[18] = po, raw data sheet, from average profile, +Pineapple FW
[19] = po, raw data sheet, from average profile, drug alone (water)
[20] = rats, berry FW relative to control (water)
[21] = rats, lime FW relative to control (water)
[22] = rats, peach FW relative to control (water)
[23] = rats, pineapple FW relative to control (water)
[24] = raw data sheet, +Berry FW vs drug alone
[25] = raw data sheet, +Lime FW vs drug alone
[26] = raw data sheet, +Peach FW vs drug alone
[27] = raw data sheet, +Pineapple FW vs drug alone

concentration at 0 h [1]: 6.83 ng/mL
concentration at 0.5 h [1]: 46.3 ng/mL
concentration at 1 h [1]: 76.7 ng/mL
concentration at 2 h [1]: 92.4 ng/mL
concentration at 3 h [1]: 110 ng/mL
concentration at 5 h [1]: 45.6 ng/mL
concentration at 24 h [1]: 11.9 ng/mL
concentration at 48 h [1]: 8.18 ng/mL
concentration at 0 h [2]: 19.8 ng/mL
concentration at 0.5 h [2]: 164 ng/mL
concentration at 1 h [2]: 103 ng/mL
concentration at 2 h [2]: 73.3 ng/mL
concentration at 3 h [2]: 57.6 ng/mL
concentration at 5 h [2]: 42.2 ng/mL
concentration at 24 h [2]: 32.1 ng/mL
concentration at 48 h [2]: 25.1 ng/mL
concentration at 0 h [3]: 5.49 ng/mL
concentration at 0.5 h [3]: 67.8 ng/mL
concentration at 1 h [3]: 81.7 ng/mL
concentration at 2 h [3]: 111 ng/mL
concentration at 3 h [3]: 43.2 ng/mL
concentration at 5 h [3]: 18.2 ng/mL
concentration at 24 h [3]: 11.4 ng/mL
concentration at 48 h [3]: 9.85 ng/mL
concentration at 0 h [4]: 10.6 ng/mL
concentration at 0.5 h [4]: 22.3 ng/mL
concentration at 1 h [4]: 36.6 ng/mL
concentration at 2 h [4]: 120 ng/mL
concentration at 3 h [4]: 45.3 ng/mL
concentration at 5 h [4]: 20.9 ng/mL
concentration at 24 h [4]: 15.8 ng/mL
concentration at 48 h [4]: 14 ng/mL
concentration at 0 h [5]: 9.48 ng/mL
concentration at 0.5 h [5]: 44.5 ng/mL
concentration at 1 h [5]: 105 ng/mL
concentration at 2 h [5]: 48.2 ng/mL
concentration at 3 h [5]: 29.7 ng/mL
concentration at 5 h [5]: 23.2 ng/mL
concentration at 24 h [5]: 12.3 ng/mL
concentration at 48 h [5]: 9.77 ng/mL
concentration at 0 h [6]: 6.83 ng/mL
concentration at 0.5 h [6]: 46.3 ng/mL
concentration at 1 h [6]: 76.7 ng/mL
concentration at 2 h [6]: 92.4 ng/mL
concentration at 3 h [6]: 110 ng/mL
concentration at 5 h [6]: 45.6 ng/mL
concentration at 24 h [6]: 11.9 ng/mL
concentration at 48 h [6]: 8.18 ng/mL
concentration at 0 h [7]: 19.8 ng/mL
concentration at 0.5 h [7]: 164 ng/mL
concentration at 1 h [7]: 103 ng/mL
concentration at 2 h [7]: 73.3 ng/mL
concentration at 3 h [7]: 57.6 ng/mL
concentration at 5 h [7]: 42.2 ng/mL
concentration at 24 h [7]: 32.1 ng/mL
concentration at 48 h [7]: 25.1 ng/mL
concentration at 0 h [8]: 5.49 ng/mL
concentration at 0.5 h [8]: 67.8 ng/mL
concentration at 1 h [8]: 81.7 ng/mL
concentration at 2 h [8]: 111 ng/mL
concentration at 3 h [8]: 43.2 ng/mL
concentration at 5 h [8]: 18.2 ng/mL
concentration at 24 h [8]: 11.4 ng/mL
concentration at 48 h [8]: 9.85 ng/mL
concentration at 0 h [9]: 10.6 ng/mL
concentration at 0.5 h [9]: 22.3 ng/mL
concentration at 1 h [9]: 36.6 ng/mL
concentration at 2 h [9]: 120 ng/mL
concentration at 3 h [9]: 45.3 ng/mL
concentration at 5 h [9]: 20.9 ng/mL
concentration at 24 h [9]: 15.8 ng/mL
concentration at 48 h [9]: 14 ng/mL
concentration at 0 h [10]: 9.48 ng/mL
concentration at 0.5 h [10]: 44.5 ng/mL
concentration at 1 h [10]: 105 ng/mL
concentration at 2 h [10]: 48.2 ng/mL
concentration at 3 h [10]: 29.7 ng/mL
concentration at 5 h [10]: 23.2 ng/mL
concentration at 24 h [10]: 12.3 ng/mL
concentration at 48 h [10]: 9.77 ng/mL
AUC(0-inf) [11]: 1380 ng·h/mL
CL/F [11]: 241 mL/min/kg
Cmax [11]: 111 ng/mL
Tmax (po, rats, 20 mg/kg oral, four weeks lime FW, n = 5, mean (SD)): 0.51 h
AUC(0-inf) [12]: 1530 ng·h/mL
CL/F [12]: 219 mL/min/kg
AUC(0-t) [12]: 827 ng·h/mL
Cmax [13]: 120 ng/mL
AUC(0-t) [13]: 942 ng·h/mL
AUC(0-inf) [14]: 1320 ng·h/mL
CL/F [14]: 253 mL/min/kg
Cmax [14]: 106 ng/mL
AUC(0-t) [14]: 827 ng·h/mL
Tmax [14]: 1.02 h
half-life [14]: 35.1 h
AUC [15]: 1330 ng·h/mL
Cmax [15]: 110 ng/mL
Tmax [15]: 3 h
half-life [15]: 13.3 h
AUC [16]: 3340 ng·h/mL
Cmax [16]: 164 ng/mL
Tmax [16]: 0.5 h
half-life [16]: 43.6 h
AUC [17]: 1210 ng·h/mL
Cmax [17]: 111 ng/mL
Tmax [17]: 2 h
half-life [17]: 27 h
AUC [18]: 1670 ng·h/mL
Cmax [18]: 120 ng/mL
Tmax [18]: 2 h
half-life [18]: 35.6 h
AUC [19]: 1240 ng·h/mL
Cmax [19]: 105 ng/mL
Tmax [19]: 1 h
half-life [19]: 29.4 h
decrease in t1/2 [20]: ~49%
effect on exposure (AUC0–48) [20]: significantly affected
increase in AUC0–48 [20]: 42.35%
increase in tmax [20]: three times increase
decrease in apparent oral clearance (CL/F) [21]: 65%
decrease in tmax [21]: not statistically significant
increase in AUC0–∞ [21]: 200%
increase in Cmax [21]: 95%
increase in t1/2 [21]: ~65%
effect on Cmax, AUC0–48, AUC0–∞, and CL/F [22]: no significant effect
increase in t1/2 [22]: about 41%
increase in tmax [22]: two times increase
increase in AUC0–∞ [23]: 86%
increase in t1/2 [23]: ~113.8%
increase in tmax [23]: two times increase
% change FOR AREA [24]: 7% FOR AREA
% change FOR C MAX [24]: 5% FOR C MAX
% change FOR AREA [25]: 170% FOR AREA
% change FOR C MAX [25]: 56% FOR C MAX
% change FOR AREA [26]: -2% FOR AREA
% change FOR C MAX [26]: 6% FOR C MAX
% change FOR AREA [27]: 35% FOR AREA
% change FOR C MAX [27]: 13% FOR C MAX
Structure (SMILES): C#Cc1cccc(Nc2ncnc3cc(OCCOC)c(OCCOC)cc23)c1 [ERL, Erlotinib]
effect on PK parameters (overall) [22]: minimum effect; also recorded: least effect; also recorded: nearly negligible effect
